Results taken from EP4345091A1, “BENZOIC ACID DERIVATIVES, METHODS AND USES THEREOF” (priority 2022, dated 2024).
Converted amounts (≈) assume the structure as drawn. Read-outs that look alike come from different tables or passages of the source.

Tests used:
[1] = Stability in Mycobacterium smegmatis homogenate (enzymatic hydrolysis); details: pH 7.4; for half-life at 500 µM: mycobacterium smegmatis homogenate; for half-life: Mycobacterium smegmatis
[2] = tested on: Mycobacterium smegmatis homogenate; assay: as above; details: Mycobacterium smegmatis homogenate, 37°C
[3] = Chemical stability in phosphate buffer pH 7.4
Procedure: (§3) Chemical hydrolysis was evaluated in phosphate buffer at physiological pH (7.4) to determine its influence in enzymatic studies.
(§4) 1176 µL pH 7.4 phosphate buffer or pH 5.9 phosphate buffer, 18 µL ACN and 6 µL of a 10-1 M stock solution of the prodrug in ACN were mixed in a 2mL vial. The solution was incubated at 37 °C and 50 µL aliquots were removed, mixed with 450 µL of ACN: H2O 1:1. The solution was analysed by HPLC, the remaining substrate and the correspondent acid were both measured.
(§5) The eluant was a mixture of acetonitrile (60%/70%) and aqueous phosphate buffer with 5% of KH2PO4/H3PO4 0.025M (40%/30%). The flow rate was always 1 mL/1 min and wavelength was set at 230 nm. All quantifications were evaluated using calibration curves from stock solutions.
(§6) The initial substrate concentration was 5 x 10^-4 M in all stability assays. All incubations were carried out at pH 7.4 and 37 °C under agitation using the phosphate buffer described above as diluting agent. […] Acetonitrile (2%) was used in all studies to ensure adequate solubilization of the substrates.

[4] = Cytotoxicity assay in THP-1 cells; format: cell-based, human; details: human, THP-1 cells, read-out: LC50 (the source's name)
Source text: (§1) Cytotoxicity results were obtained through lethal concentration for 50% of the cell population, LC50. Table 6. Results obtained from cytotoxicity assays for the esters, represented by LD50 in µg/mL and comparison with MIC values, in µg/mL with toxicity/activity (T/A) index.
(§2) The T/A index quantitatively is the ratio between the lethal concentration (LC50) given by the minimum inhibitory concentration (MIC).

[5] = tested on: human monocytic cell line THP-1 (ATCC56 TIB202); assay: Cytotoxicity assay in THP-1 cells; format: cell-based; details: toxicity/activity index: ratio LC50 (THP-1) / MIC (M. tuberculosis H37Rv)
Source text: as §1, §2

[6] = Stability in human plasma (enzymatic hydrolysis)
Procedure: The studies of stability in human plasma were performed in human plasma diluted to 80% with phosphate buffer pH 7.4 of total concentration 0.05 M and ionic strength 0.15 M at 37°C. […] Study of enzymatic hydrolysis. […] Initial substrate concentration (ester) - 5×10^-4M with 2% ACN.
Pooled human plasma (960 µL), pH 7.4 phosphate buffered saline (216 µL), 18 µL ACN and 6 µL of a 10-1 M stock solution of the prodrug in ACN were mixed in a 2mL vial. The suspensions were incubated at 37 °C and 50 µL aliquots were removed, mixed with 450 µL of ACN: ZnSO4 1% 1:1 and centrifuged. The supernatant was removed and analysed by HPLC, the remaining substrate and the correspondent acid measured.
Two HPLC systems were used. The buffer and plasma stability studies were performed in an HPLC system with a photodiode detector L-3000 Photo Diode Array Detector, Merck-Hitachi L-6000 pump, Merck-Hitachi D-2500 integrator, and Merck RP-8 column. […] The eluant was a mixture of acetonitrile (60%/70%) and aqueous phosphate buffer with 5% of KH2PO4/H3PO4 0.025M (40%/30%). The flow rate was always 1 mL/1 min and wavelength was set at 230 nm. All quantifications were evaluated using calibration curves from stock solutions.
The initial substrate concentration was 5 x 10^-4 M in all stability assays. All incubations were carried out at pH 7.4 and 37 °C under agitation using the phosphate buffer described above as diluting agent. […] Acetonitrile (2%) was used in all studies to ensure adequate solubilization of the substrates. The benzoates were added from 10 to 1M acetonitrile stock solutions. After incubation, aliquots of 50 µL were taken into vials containing 450 µL of a 1:1 solution of 1% zinc sulfate and acetonitrile, mixed in a vortex and centrifuged for 10 min at 15,000 rpm. The supernatant was then injected into the HPLC and analysed for quantification of benzoic acid and remaining benzoate. All quantifications were performed using calibration curves.

[7] = tested on: Mycobacterium tuberculosis H37Rv; assay: MIC and MBC by broth microdilution against M. tuberculosis H37Rv; format: cell-based, Mycobacterium tuberculosis H37Rv (ATCC 27294)
[8] = pH 7.4
Procedure: as §3, §4, §5, §6

M. smegmatis mc2 155 = assay: MIC and MBC against M. smegmatis; format: cell-based; details: Mycolicibacterium smegmatis, MC2155
M. bovis BCG = assay: microbe, parasite or virus in culture; format: cell-based; details: Mycobacterium tuberculosis variant bovis BCG
[9] = tested on: Mycobacterium Bovis BCG infecting human macrophages THP-1; format: cell-based; details: compound concentration 2 µg/ml
[10] = lethal concentration for 50% of the cell population
[11] = Mycobacterium tuberculosis, H37RV, M. tuberculosis H37Rv, Table 3, read-out: MBC
[12] = Mycobacterium tuberculosis, H37RV, M. tuberculosis H37Rv, Tables 3, 6 and 7, read-out: MIC
[13] = Mycobacterium tuberculosis, H37RV, M. tuberculosis H37Rv, Table 3
[14] = Mycobacterium tuberculosis, H37RV, M. tuberculosis H37Rv, Tables 3, 6 and 7
[15] = Mycobacterium tuberculosis, H37RV
[16] = Mycobacterium tuberculosis, H37RV, M. tuberculosis H37Rv, Table 4
[17] = THP-1 monocytic cells, lethal concentration for 50% of the cell population

Compound: CCCCCCCCOC(=O)c1ccccc1 [Compound 1c, Octyl benzoate]
- half-life at 500 µM [1]: 1.96 ± 0.02 h
- Degradation (%) 24h [2]: 100%
- Degradation (%) 48h [2]: 100%
- Degradation (%) 24h [3]: 0%
- Degradation (%) 48h [3]: 0%
- Degradation (%) 72h [3]: 0%
- Degradation (%) 168h [3]: 0%
- Degradation (%) 332h [3]: 0%
- CC50 [4, 10]: 1650 µg/mL (≈ 7020 µM)
- T/A [5]: 6
- Degradation (%) 24h [6]: 45%
- Degradation (%) 48h [6]: 71%
- Degradation (%) 72h [6]: 84%
- MBC [7, 11]: > 256 µg/mL
- MIC [7, 12]: 256 µg/mL (≈ 1090 µM)

Compound: CCCCCCCCCCCCOC(=O)c1ccc([N+](=O)[O-])cc1 [Compound 2e]
- half-life at 500 µM [1]: 79.4 ± 4.7 h
- Degradation (%) 24h [2]: 19%
- Degradation (%) 48h [2]: 34%
- Degradation (%) 24h [8]: 0%
- Degradation (%) 48h [8]: 0%
- Degradation (%) 72h [8]: 0%
- Degradation (%) 168h [8]: 1%
- Degradation (%) 332h [8]: 1%
- MBC [7, 13]: 64 µg/mL (≈ 191 µM)
- MIC [7, 14]: 8 µg/mL (≈ 23.8 µM)

Compound: CCCCCCCCCCCCCCCCNC(=O)c1cc([N+](=O)[O-])cc([N+](=O)[O-])c1 [Compound 7g, N-hexadecyl-3.5-dinitrobenzamide]
- MBC (M. smegmatis mc2 155): > 64 µg/mL
- MIC (M. smegmatis mc2 155): 32 µg/mL (≈ 73.5 µM)
- Degradation (%) 24h [2]: 0%
- Degradation (%) 48h [2]: 0%
- MBC (M. bovis BCG): 4 µg/mL (≈ 9.18 µM)
- MIC (M. bovis BCG): 2 µg/mL (≈ 4.59 µM)
- CC50 ([4]; n/d (no toxicity at maximum tested dose)): > 512 µg/mL
- MBC ([7]; M. tuberculosis H37Rv, Table 4): 2 µg/mL (≈ 4.59 µM)
- MIC ([7]; M. tuberculosis H37Rv, Table 4): 2 µg/mL (≈ 4.59 µM)
- MBC [7, 15]: 2 µg/mL (≈ 4.59 µM)
- MIC [7, 15]: 2 µg/mL (≈ 4.59 µM)

Compound: CCCCCCCCCCNC(=O)c1cc([N+](=O)[O-])cc([N+](=O)[O-])c1 [Compound 7d, N-decyl-3.5-dinitrobenzamide]
- MBC (M. smegmatis mc2 155): 1 µg/mL (≈ 2.85 µM)
- MIC (M. smegmatis mc2 155): 1 µg/mL (≈ 2.85 µM)
- Degradation (%) 24h [2]: 1%
- Degradation (%) 48h [2]: 2%
- MBC (M. bovis BCG): 0.062 µg/mL (≈ 0.176 µM)
- MIC (M. bovis BCG): 0.062 µg/mL (≈ 0.176 µM)
- CC50 [4, 10]: 53 µg/mL (≈ 151 µM)
- T/A [5]: 841
- MBC [7, 13]: 0.063 µg/mL (≈ 0.179 µM)
- MBC [7, 16]: ≤ 0.5 µg/mL
- MIC [7, 16]: ≤ 0.5 µg/mL
- MIC [7, 14]: 0.063 µg/mL (≈ 0.179 µM)
- CFU x10^4 ([9]; Time 0 days): 9.2 CFUs per mL
- CFU x10^4 ([9]; Time 1 day): 7.33 CFUs per mL
- CFU x10^4 ([9]; Time 3 days): 0.32 CFUs per mL
- CFU x10^4 ([9]; Time 7 days): 0.03 CFUs per mL

Compound: CCCCOC(=O)c1ccc([N+](=O)[O-])cc1 [Compound 2a]
- half-life at 500 µM [1]: 3.46 ± 0.49 h
- Degradation (%) 24h [2]: 99%
- Degradation (%) 48h [2]: 100%
- Degradation (%) 24h [8]: 0%
- Degradation (%) 48h [8]: 1%
- Degradation (%) 72h [8]: 1%
- Degradation (%) 168h [8]: 2%
- Degradation (%) 332h [8]: 4%
- MBC [7, 13]: 128 µg/mL (≈ 573 µM)
- MIC [7, 14]: 64 µg/mL (≈ 287 µM)

Compound: CCCCOC(=O)c1cc([N+](=O)[O-])cc(C(F)(F)F)c1 [Compound 4a, Butyl 3-nitro-5-(trifluoromethyl)benzoate]
- half-life [1]: 5.36 ± 0.44 h
- Degradation (%) 24h [2]: 95%
- Degradation (%) 48h [2]: 100%
- Degradation (%) 24h [3]: 5%
- Degradation (%) 48h [3]: 12%
- Degradation (%) 72h [3]: 16%
- Degradation (%) 168h [3]: 35%
- Degradation (%) 332h [3]: 60%
- CC50 [4, 17]: 552 µg/mL (≈ 1900 µM)
- T/A [5]: 0.54
- Degradation (%) 24h [6]: 95%
- Degradation (%) 48h [6]: 100%
- Degradation (%) 72h [6]: 100%
- MBC [7, 11]: 1020 µg/mL (≈ 3520 µM)
- MIC [7, 12]: 1020 µg/mL (≈ 3520 µM)

Compound: CCCCCCOC(=O)c1cc([N+](=O)[O-])cc([N+](=O)[O-])c1 [Compound 3b]
- half-life at 500 µM [1]: 80.9 ± 5.5 h
- Degradation (%) 24h [2]: 19%
- Degradation (%) 48h [2]: 34%
- CC50 [4, 10]: 528 µg/mL (≈ 1780 µM)
- T/A [5]: 17
- Degradation (%) 24h [6]: 74%
- Degradation (%) 48h [6]: 93%
- Degradation (%) 72h [6]: 98%
- CFU x10^4 ([9]; Time 0 days): 9.2 CFUs per mL
- CFU x10^4 ([9]; Time 1 day): 14.58 CFUs per mL
- CFU x10^4 ([9]; Time 3 days): 11.87 CFUs per mL
- CFU x10^4 ([9]; Time 7 days): 9.83 CFUs per mL

Compound: CCCCOC(=O)c1cc([N+](=O)[O-])cc([N+](=O)[O-])c1 [Compound 3a]
- half-life at 500 µM [1]: 6.32 ± 0.44 h
- Degradation (%) 24h [2]: 93%
- Degradation (%) 48h [2]: 99%
- Degradation (%) 24h [3]: 10%
- Degradation (%) 48h [3]: 14%
- Degradation (%) 72h [3]: 18%
- Degradation (%) 168h [3]: 40%
- Degradation (%) 332h [3]: 65%
- CC50 [4, 10]: 456 µg/mL (≈ 1700 µM)
- T/A [5]: 14
- Degradation (%) 24h [6]: 86%
- Degradation (%) 48h [6]: 98%
- Degradation (%) 72h [6]: 100%
- MBC [7, 15]: 128 µg/mL (≈ 477 µM)
- MIC [7, 15]: 32 µg/mL (≈ 119 µM)

Compound: CCCCNC(=O)c1cc([N+](=O)[O-])cc([N+](=O)[O-])c1 [Compound 7a, N-butyl-3.5-dinitrobenzamide]
- half-life at 500 µM [1]: 22.9 ± 1.5 h
- Degradation (%) 24h [2]: 52%
- Degradation (%) 48h [2]: 77%
- MBC (M. bovis BCG): 1 µg/mL (≈ 3.74 µM)
- MIC (M. bovis BCG): 0.5 µg/mL (≈ 1.87 µM)
- Degradation (%) 24h [3]: 0%
- Degradation (%) 48h [3]: 0%
- Degradation (%) 72h [3]: 0%
- Degradation (%) 168h [3]: 0%
- Degradation (%) 332h [3]: 0%
- CC50 [4, 10]: 26 µg/mL (≈ 97.3 µM)
- T/A [5]: 52
- Degradation (%) 24h [6]: 0%
- Degradation (%) 48h [6]: 0%
- Degradation (%) 72h [6]: 0%

Compound: CCCCNC(=O)c1cc([N+](=O)[O-])cc(C(F)(F)F)c1 [Compound 8a, N-butyl-3-nitro-5-(trifluoromethyl)-benzamide]
- half-life [1]: 63.8 ± 4.1 h
- Degradation (%) 24h [2]: 23%
- Degradation (%) 48h [2]: 41%
- Degradation (%) 24h [3]: 0%
- Degradation (%) 48h [3]: 0%
- Degradation (%) 72h [3]: 0%
- Degradation (%) 168h [3]: 0%
- Degradation (%) 332h [3]: 0%
- CC50 [4, 17]: 41 µg/mL (≈ 141 µM)
- T/A [5]: 21
- Degradation (%) 24h [6]: 0%
- Degradation (%) 48h [6]: 0%
- Degradation (%) 72h [6]: 0%
- MBC [7, 11]: 2 µg/mL (≈ 6.89 µM)
- MIC [7, 12]: 2 µg/mL (≈ 6.89 µM)

Compound: CCCCCCCCOC(=O)c1ccc([N+](=O)[O-])cc1 [Compound 2c, Octyl 4-nitrobenzoate]
- half-life [1]: 39 ± 7.7 h
- Degradation (%) 24h [2]: 35%
- Degradation (%) 48h [2]: 58%
- Degradation (%) 24h [3]: 0%
- Degradation (%) 48h [3]: 1%
- Degradation (%) 72h [3]: 1%
- Degradation (%) 168h [3]: 3%
- Degradation (%) 332h [3]: 6%
- CC50 [4, 17]: 657 µg/mL (≈ 2350 µM)
- T/A [5]: 82
- Degradation (%) 24h [6]: 100%
- Degradation (%) 48h [6]: 100%
- Degradation (%) 72h [6]: 100%
- MBC [7, 11]: 128 µg/mL (≈ 458 µM)
- MIC [7, 12]: 8 µg/mL (≈ 28.6 µM)
